From patent US20130177627A1, “Growth inhibitory effects of nanoparticles containing triterpene glycosides or triterpenes” (priority 2011, published 2013)
Converted amounts (≈) assume the structure as drawn. “And” between values parts separate entries of the source, which are not always exact repeats. Equal values may be shown once. “Also recorded” adds a separate entry of the source. Read-outs that look alike come from different tables or passages of the source.

Key:
[1] = tested on: 293T(NF-κB) stably transformed cells; experiment: MTT growth inhibition assay on 293T(NF-κB) cells; type: cell-based; conditions: Homo sapiens, HEK-293T, 96 h MTT, FIG. 10B
[2] = tested on: HT29 cells; experiment: Calcium release, cells preloaded with Fura-2, HT29; type: cell-based, human
Experimental: (§1) Methods: To reveal signaling pathways, human breast and colon cancer, as well as 293T(NK-kB), cells were treated with actein, alone or combined with specific inhibitors. Effects were measured using the MTT, luciferase, promoter and Western blot assays and histology. To assess effects on calcium release, cells were preloaded with the calcium sensitive dye Fura-2. To enhance bioavailability, actein was conjugated to nanoparticle liposomes.
(§2) To elucidate the primary targets of actein, the effect of actein on calcium release was assessed. Cells were preloaded with the calcium sensitive dye Fura-2, which binds to calcium ions inside the cell. […] The effect was dose dependent in that it was stronger at 10 μM than at 10 nM in MCF7 breast cancer cells (FIG. 7A, B). […] The increase in calcium level was more sustained at the higher dose of actein (10 μM)) versus 10 nM and it continued longer for MDA-MB-453 than for MCF7 breast cancer cells (FIG. 7C).

[3] = tested on: IKKβ protein; experiment: Western blot analysis of IKKβ; type: cell-based; conditions: 3 h, FIG. 10C
Experimental: Cells were treated for increasing times, in media containing serum, with approximately the IC50 and twice the IC50 concentration, measured at 48 h, of actein. Western blot analysis was performed as previously described (Einbond et al., 2004). The membrane was incubated with the primary antibody IKKβ (Santa Cruz Biotechnology; Santa Cruz, Calif.); β-actin was used as a loading control.

[4] = tested on: 293T(null) cells; experiment: MTT growth inhibition assay on 293T(null) cells; type: cell-based; conditions: Homo sapiens, HEK-293T, 96 h MTT, FIG. 10B
[5] = tested on: MCF7 cells; experiment: Calcium release, cells preloaded with Fura-2, MCF7; type: cell-based, human
Experimental: as §1, §2

[6] = tested on: rat liver; experiment: Gene expression in rat liver after actein; type: in vivo; conditions: gene expression analysis
[7] = tested on: NFκB transcription factor; experiment: NF-kB luciferase assay in 293T cells; type: cell-based; conditions: 293T(NF-κB) cells
Experimental: A luciferase reporter construct is integrated in 293T cells and is regulated by 6 copies of the NFκB response element. The assay to monitor the activity of NFκB transcription factor was performed as described in the manufacturer's instructions (Panomics, Freemont, Calif.).

[8] = tested on: breast cancer cell growth; conditions: Einbond et al., 2008; cited from earlier work
[9] = tested on: HT29 human colon cancer cells; experiment: MTT growth inhibition assay on HT29 cells; type: cell-based
[10] = tested on: MDA-MB-453 cells; experiment: Calcium release, cells preloaded with Fura-2, MDA-MB-453; type: cell-based, human; conditions: MDA-MB-453, FIG. 7C
Experimental: as §1, §2

[11] = tested on: NF-kB promoter activity, p-Erk, p-Akt, cyclin D1; conditions: later times (24 h), Einbond et al., 2008; cited from earlier work
[12] = tested on: Na+/K+-ATPase; conditions: Einbond et al., 2008, cited from earlier work
[13] = tested on: MDA-MB-453 human breast cancer cells; experiment: MTT growth inhibition assay and combination index on MDA-MB-453 cells
Experimental: MTT assay: the MTT (3-(4,5-dimethyl-2-thiazol)-2,5-diphenyl-2H tetrazolilum bromide) cell proliferation assay system (Roche Diagnostic, Mannheim, Germany) was used to determine the sensitivity of the various cell lines to agents. Cells were seeded at 1×10^4 cells/well in 96-well plates and allowed to attach for 24 h. The medium was replaced with fresh medium containing DMSO or compound. The cells were treated for 96 or 120 h, after which they were incubated with MTT reagents and the absorbance read at 650 and 575 nm.
The results of the MTT assay were analyzed for possible synergistic effects using the median effect principle.

[14] = tested on: rat liver; conditions: cited from earlier work
[15] = tested on: MCF7 human breast cancer cells; experiment: MTT growth inhibition assay on MCF7 cells; type: cell-based
[16] = tested on: MDA-MB-453 breast cancer cells; experiment: Gene expression analysis in MDA-MB-453 cells; type: cell-based, human; conditions: actein 20 μg/ml
Experimental: Gene expression analysis was performed as previously described in vitro (Einbond et al., 2007)
AffyLimma analysis: To identify individual alterations in gene expression induced by treatment, an unbiased informatics analysis was performed using the AffyLimmaGUI package in the open-source Bioconductor suite, as previously described [Einbond et al., 2007.]

[17] = Homo sapiens, MDA-MB-453, read-out: IC50, agent alone

Compound: CC(=O)O[C@@H]1C[C@@]23C[C@@]24CC[C@H](O[C@@H]2OC[C@@H](O)[C@H](O)[C@H]2O)C(C)(C)[C@@H]4CC[C@H]3[C@]2(C)C[C@@H]3O[C@]4(C[C@@H](C)[C@@H]3[C@@]12C)O[C@H](O)[C@@]1(C)O[C@@H]41 [actein]
- IC50 [1]: 38 µg/mL (≈ 56.1 µM)
- calcium release (action potential, Fura-2) [2]: induced an increase in action potential indicating calcium release
- level of IKKβ protein [3]: decreased the level of IKKβ protein in a dose dependent manner
- IC50 [4]: 75 µg/mL (≈ 111 µM)
- calcium release (action potential, Fura-2) ([5]; MCF7, actein 10 nM and 10 μM, FIG. 7A, B): induced an increase in action potential indicating calcium release
- intracellular calcium (ion concentration) levels ([5]; MCF7, actein 100 nM or 100 μM, FIG. 4): significantly increases intracellular calcium
- time course of the calcium effect ([5]; MCF7 breast cancer cells): immediate and transient
- expression of the inflammatory gene CXCR4 in rat liver tissue [6]: reduced the expression
- effect on 293T cells stably transformed with the NF-κB plasmid (FIG. 10A NF-kB activity) [7]: did not increase cell proliferation
- combination with digitoxin on breast cancer cell growth [8]: synergized with digitoxin
- IC50 ([9]; Homo sapiens, HT-29, 96 h, read-out: IC50, concentration that caused 50% inhibition of cell growth): ~24 µg/mL and ~35 µM
- viability at 10 µg/mL ([9]; Homo sapiens, HT-29, HT29, actein 10 μg/ml alone or plus U0126 10 μM, read-out: percent viable cells): 79.1%
- IC50 ([9]; Homo sapiens, HT-29, HT29, actein alone or combined with MEK inhibitor U0126, FIG. 6C, read-out: IC50, growth inhibition): 30 µg/mL
- calcium release (action potential, Fura-2) [10]: induced an increase in action potential indicating calcium release
- level of NF-kB promoter activity, p-Erk, p-Akt and cyclin D1 protein [11]: reduced
- activity of the purified Na-K ATPase [12]; 2007: inhibits the activity of the purified Na+/K+-ATPase; also recorded: inhibited the activity of the purified Na-K ATPase
- combination with digitoxin on Na/K ATPase activity [12]: synergized with digitoxin
- IC50 ([13]; Homo sapiens, MDA-MB-453, 96 h, read-out: IC50, concentration that caused 50% inhibition of cell growth): ~8 µg/mL and ~12 µM
- IC50 [13, 17]: 25 µg/mL
- IC50 ([13]; Homo sapiens, MDA-MB-453, read-out: IC50, growth inhibition): 23 µg/mL
- ability of actein to potentiate the effects of thapsigargin ([13]; MDA-MB-453, FIG. 8A, B): enhanced the effects of thapsigargin
- genes erythropoietin, CYP2C and ATP synthase in rat liver ([14]; actein 35.7 mg/kg for 6 h, rat liver (Einbond et al., 2009)): downregulated
- responses elicited in rat liver in vivo ([14]; rat liver): elicited stress and statin-associated responses
- IC50 ([15]; MCF7, 96 h, read-out: IC50, concentration that caused 50% inhibition of cell growth): ~30 µM
- viability at 5 µg/mL ([15]; MCF7, actein 5 μg/ml alone or plus U0126 10 μM, read-out: percent viable cells): 79.2%
- IC50 ([15]; MCF7, actein alone or combined with MEK inhibitor U0126, FIG. 6B, read-out: IC50, growth inhibition): 20 µg/mL
- expression of the inflammatory pathway, cytokine-cytokine interaction ([16]; 6 h, up EPOR, down CXCR4, TRAF5, IL17RB): significantly modulated
- expression of the MAPK signaling pathway ([16]; gene (up) HSPA1A): significantly altered

Compound: C/C=C(/C)C(=O)O[C@H]1C(C)=C2[C@H]([C@@H]1OC(=O)CCCCCCC)[C@@](C)(OC(C)=O)C[C@H](OC(=O)CCC)[C@@]1(O)[C@H]2OC(=O)[C@@]1(C)O [thapsigargin, reference compound]
- IC50 [13, 17]: 0.018 µg/mL
- viability at 0.01 µg/mL ([13]; Homo sapiens, MDA-MB-453, read-out: percent viable cells): 76.3%

Compound: heparin [reference compound]
- effect of heparin on the growth inhibitory effects of actein ([9]; HT29 colon cancer cells): partially blocked
- effect of heparin on actein-induced calcium release [10]: completely blocked
